According to ChEMBL document CHEMBL1201862, “PubChem BioAssay data set” (2004):
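Protocol summary: plate cells (96-well), add compound at 5 concentrations, incubate 48 h, interpolate endpoints linearly. GI50: concentration for 50% inhibition of growth.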 Activity calls are given as the source filed them. Rule as the data show it: active = GI50 up to about 1.1 µM and inactive = higher.

What was measured:
Assay in all cases: NCI-60 cell line screen, 48 h
[1] = tested on: BT-549
[2] = tested on: OVCAR-4
[3] = tested on: OVCAR-3
[4] = tested on: DU-145
[5] = tested on: LOX IMVI
[6] = tested on: NCI-H23
[7] = tested on: SNB-19
[8] = tested on: OVCAR-5
[9] = tested on: Malme-3M
[10] = tested on: U-251
[11] = tested on: NCI-H522
[12] = tested on: M14
[13] = tested on: MCF7
[14] = tested on: K562
[15] = tested on: KM12
[16] = tested on: NCI/ADR-RES
[17] = tested on: MDA-N
[18] = tested on: HOP-92
[19] = tested on: SW-620
[20] = tested on: MDA-MB-435
[21] = tested on: HCT-15
[22] = tested on: UO-31
[23] = tested on: SK-MEL-2
[24] = tested on: NCI-H226
[25] = tested on: MOLT-4
[26] = tested on: PC-3
[27] = tested on: CCRF-CEM
[28] = tested on: SR
[29] = tested on: HL-60
[30] = tested on: TK-10
[31] = tested on: SN12C
[32] = tested on: SF-268
[33] = tested on: OVCAR-8
[34] = tested on: NCI-H460
[35] = tested on: EKVX
[36] = tested on: SK-MEL-5
[37] = tested on: ACHN
[38] = tested on: SF-539
[39] = tested on: HT-29
[40] = tested on: RXF 393
[41] = tested on: SNB-75
[42] = tested on: IGROV-1
[43] = tested on: A549
[44] = tested on: SF-295
[45] = tested on: UACC-62
[46] = tested on: UACC-257
[47] = tested on: HOP-62
[48] = tested on: 786-0
[49] = tested on: Hs-578T
[50] = tested on: HCC 2998
[51] = tested on: RPMI-8226
[52] = tested on: SK-OV-3
[53] = tested on: SK-MEL-28
[54] = tested on: COLO 205
[55] = tested on: T47D
[56] = tested on: CAKI-1
[57] = tested on: A498
[58] = tested on: HCT-116
[59] = tested on: MDA-MB-231

COc1ccccc1C1(C)SCc2nc3ccccc3n21 (stereo unspecified)
GI50 [1]: > 10 µM (inactive) | GI50 [2]: > 10 µM (inactive) | GI50 [3]: > 10 µM (inactive) | GI50 [4]: > 10 µM (inactive) | GI50 [5]: > 10 µM (inactive) | GI50 [6]: > 10 µM (inactive) | GI50 [7]: > 10 µM (inactive) | GI50 [8]: > 10 µM (inactive) | GI50 [9]: > 10 µM (inactive) | GI50 [10]: > 10 µM (inactive) | GI50 [11]: > 10 µM (inactive) | GI50 [12]: > 10 µM (inactive) | GI50 [13]: > 10 µM (inactive) | GI50 [14]: > 10 µM (inactive) | GI50 [15]: > 10 µM (inactive) | GI50 [16]: > 10 µM (inactive) | GI50 [17]: > 10 µM (inactive) | GI50 [18]: > 10 µM (inactive) | GI50 [19]: > 10 µM (inactive) | GI50 [20]: > 10 µM (inactive) | GI50 [21]: > 10 µM | GI50 [22]: > 10 µM (inactive) | GI50 [23]: > 10 µM (inactive) | GI50 [24]: > 10 µM (inactive) | GI50 [25]: > 10 µM (inactive) | GI50 [26]: > 10 µM (inactive) | GI50 [27]: > 10 µM (inactive) | GI50 [28]: > 10 µM (inactive) | GI50 [29]: > 10 µM (inactive) | GI50 [30]: > 10 µM (inactive) | GI50 [31]: > 10 µM (inactive)

CCc1nc(Cl)c(Cl)c(Cl)n1
GI50 [1]: > 100 µM (inactive) | GI50 [2]: > 100 µM (inactive) | GI50 [32]: > 100 µM (inactive) | GI50 [33]: > 100 µM (inactive) | GI50 [3]: > 100 µM (inactive) | GI50 [5]: > 100 µM (inactive) | GI50 [34]: > 100 µM (inactive) | GI50 [6]: > 100 µM (inactive) | GI50 [7]: > 100 µM (inactive) | GI50 [8]: > 100 µM (inactive) | GI50 [9]: > 100 µM (inactive) | GI50 [10]: > 100 µM (inactive) | GI50 [35]: > 100 µM (inactive) | GI50 [36]: > 100 µM (inactive) | GI50 [37]: > 100 µM (inactive) | GI50 [12]: > 100 µM (inactive) | GI50 [13]: > 100 µM (inactive) | GI50 [38]: > 100 µM (inactive) | GI50 [39]: > 100 µM (inactive) | GI50 [14]: > 100 µM (inactive) | GI50 [40]: > 100 µM (inactive) | GI50 [41]: 0.242 µM (active) | GI50 [42]: > 100 µM (inactive) | GI50 [15]: > 100 µM (inactive) | GI50 [16]: > 100 µM (inactive) | GI50 [43]: > 100 µM (inactive) | GI50 [44]: > 100 µM (inactive) | GI50 [45]: > 100 µM (inactive) | GI50 [46]: > 100 µM (inactive) | GI50 [47]: > 100 µM (inactive) | GI50 [48]: > 100 µM (inactive) | GI50 [49]: > 100 µM (inactive) | GI50 [19]: > 100 µM (inactive) | GI50 [20]: > 100 µM (inactive) | GI50 [21]: > 100 µM | GI50 [22]: > 100 µM (inactive) | GI50 [23]: > 100 µM (inactive) | GI50 [24]: > 100 µM (inactive) | GI50 [50]: > 100 µM (inactive) | GI50 [25]: > 100 µM (inactive) | GI50 [26]: > 100 µM (inactive) | GI50 [51]: > 100 µM (inactive) | GI50 [27]: > 100 µM (inactive) | GI50 [28]: > 100 µM (inactive) | GI50 [52]: > 100 µM (inactive) | GI50 [29]: > 100 µM (inactive) | GI50 [30]: > 100 µM (inactive) | GI50 [53]: > 100 µM (inactive) | GI50 [31]: > 100 µM (inactive)

CCN(CCCl)c1cc(CN(C)C)cc(NC(=O)c2ccc(C(=O)Nc3ccccc3)cc2)c1
GI50 [54]: 1.04 µM (active) | GI50 [2]: 0.288 µM (active) | GI50 [32]: 0.337 µM (active) | GI50 [33]: 0.417 µM (active) | GI50 [55]: 1.24 µM (inactive) | GI50 [4]: 0.415 µM (active) | GI50 [5]: 0.204 µM (active) | GI50 [34]: 0.275 µM (active) | GI50 [6]: 0.27 µM (active) | GI50 [7]: 0.676 µM (active) | GI50 [8]: 0.836 µM (active) | GI50 [9]: 0.191 µM (active) | GI50 [10]: 0.25 µM (active) | GI50 [36]: 0.194 µM (active) | GI50 [37]: 0.218 µM (active) | GI50 [11]: 0.109 µM (active) | GI50 [12]: 0.883 µM (active) | GI50 [13]: 0.232 µM (active) | GI50 [56]: 0.65 µM (active) | GI50 [38]: 0.647 µM (active) | GI50 [39]: 0.174 µM (active) | GI50 [14]: 0.406 µM (active) | GI50 [40]: 0.152 µM (active) | GI50 [41]: 1.08 µM (active) | GI50 [57]: 0.316 µM (active) | GI50 [42]: 0.177 µM (active) | GI50 [15]: 1.06 µM (active) | GI50 [16]: 2.63 µM (inactive) | GI50 [43]: 0.42 µM (active) | GI50 [44]: 0.348 µM (active) | GI50 [45]: 1.29 µM (inactive) | GI50 [46]: 1.3 µM (inactive) | GI50 [47]: 0.314 µM (active) | GI50 [17]: 0.298 µM (active) | GI50 [48]: 0.21 µM (active) | GI50 [49]: 0.218 µM (active) | GI50 [58]: 0.424 µM (active) | GI50 [18]: 0.414 µM (active) | GI50 [19]: 0.15 µM (active) | GI50 [20]: 0.239 µM (active) | GI50 [21]: 1.7 µM | GI50 [22]: 1.91 µM (inactive) | GI50 [23]: 0.27 µM (active) | GI50 [59]: 1.3 µM (inactive) | GI50 [24]: 1.53 µM (inactive) | GI50 [50]: 0.789 µM (active) | GI50 [25]: 0.284 µM (active) | GI50 [26]: 0.34 µM (active) | GI50 [51]: 0.307 µM (active) | GI50 [27]: 0.27 µM (active) | GI50 [28]: 0.263 µM (active) | GI50 [52]: 0.971 µM (active) | GI50 [29]: 0.193 µM (active) | GI50 [30]: 3.02 µM (inactive) | GI50 [53]: 1.19 µM (inactive) | GI50 [31]: 0.767 µM (active)
